{"source": "the SangsterLogP compilation", "key": {"[1]": {"experiment": "not given", "remark": "listed apart in the source"}, "[2]": {"experiment": "not given", "remark": "listed apart in the source"}, "[3]": {"experiment": "method code AS, from DOI: 10.1081/jlc-120022394"}, "[4]": {"experiment": "not given", "remark": "listed apart in the source"}, "[5]": {"experiment": "not given", "remark": "listed apart in the source"}, "[6]": {"experiment": "not given", "remark": "listed apart in the source"}, "[7]": {"experiment": "method code SF-AS, from DOI: 10.1021/jm0401006, PMID: 15481980", "settings": "pH 7.4"}, "[8]": {"experiment": "method code SF, from Moerlein, M.; Dischino, D.; Raymond, N.; Weitl, L.; Welch, J. (1982). Factors affecting the cerebral uptake of gallium complexes. J Labelled Comp Radiopharm, 19(11-12)1421-1422.", "settings": "pH 7.0"}, "[9]": {"experiment": "not given", "remark": "listed apart in the source"}, "[10]": {"experiment": "not given", "remark": "listed apart in the source"}, "[11]": {"experiment": "not given", "remark": "listed apart in the source"}}, "note": "*1 amine or outer side, *2 acyl side, *3 side chain or, on linkers, in order; H or OH if unused. Positions of bridges follow the written chain, without caps; N, C: chain ends. Where a SMILES comes first, the peptide text is derived from it. Residues, ends and D or L forms follow the SMILES beside them. [ ]: non-standard residue; d: D form. The star is where a group is joined. X1 = CC(C)C[C@H](N[*:1])[C@@H](O)C[C@H](C(=O)[*:2])C(C)C; NMeH = CN[C@@H](Cc1c[nH]cn1)C(=O)O; NHCH2(2-pyridyl) = c1ccc(CN*)nc1; Boc = CC(C)(C)OC(=O)*"}
{"smiles": "CCCC(=O)O[C@H]1[C@H](C)O[C@@H](O[C@H]2[C@H](N(C)C)[C@@H](O)[C@H](O[C@H]3[C@@H](CC=O)C[C@@H](C)[C@@H](O)/C=C/C=C/C[C@@H](C)OC(=O)C[C@@H](O)[C@@H]3OC)O[C@@H]2C)C[C@@]1(C)OC(=O)CC", "values": [{"measurement": "logP", "value": 3.08}]}
{"smiles": "CC[C@H](C)[C@@H]1NC(=O)[C@H](Cc2ccc(O)cc2)NC(=O)[C@@H](N)CSSC[C@@H](C(=O)N2CCC[C@H]2C(=O)N[C@@H](CCCN=C(N)N)C(=O)NCC(N)=O)NC(=O)[C@H](CC(N)=O)NC(=O)[C@H](CCC(N)=O)NC1=O", "note": "(H-CYIQNCPRG-NH2; disulfide 1-6)", "values": [{"measurement": "logP", "setting": "[1]", "value": -1.62}]}
{"smiles": "Cc1ccccc1Nc1nc2ccc(C(=O)NC(CCCCNC(=O)C=Cc3cccnc3)C(=O)NC(CCCC(=O)O)C(=O)NC3(C(N)=O)CCCCC3)cc2[nH]1", "note": "(configuration not stated)", "values": [{"measurement": "logP", "setting": "[2]", "value": 1.88}]}
{"smiles": "CCOC(=O)C(=Cc1ccc(Cl)cc1)NC=O", "values": [{"measurement": "logP", "setting": "[3]", "value": 2.65}]}
{"smiles": "CO[C@H]1C=CO[C@@]2(C)Oc3c(C)c(O)c4c(c3C2=O)C(=O)/C(=C/NN2CCN(C3CCCC3)CC2)C(=C4O)NC(=O)/C(C)=C\\C=C/[C@H](C)[C@H](O)[C@@H](C)[C@@H](O)[C@H](C)[C@H](OC(C)=O)[C@H]1C", "values": [{"measurement": "logP", "setting": "[4]", "value": 1.24}]}
{"smiles": "COc1ccc(C2(O)OC(=O)C(c3ccc4c(c3)OCO4)=C2Cc2cc(OC)c(OC)c(OCCOCCOCCOCCOCc3cn(C4OC(CO)C(O)C(O)C4F)nn3)c2)cc1", "note": "(configuration not stated)", "values": [{"measurement": "logP", "setting": "[5]", "value": -0.4}]}
{"smiles": "C=CC[C@@H]1/C=C(\\C)C[C@H](C)C[C@H](OC)[C@H]2O[C@@](O)(C(=O)C(=O)N3CCCC[C@H]3C(=O)O[C@H](/C(C)=C/[C@@H]3CC[C@@H](O)[C@H](OC)C3)[C@H](C)[C@@H](O)CC1=O)[C@H](C)C[C@@H]2OC", "values": [{"measurement": "logP", "setting": "[6]", "value": 3.3}]}
{"smiles": "CCOC(=O)c1cnc2c(c(C)nn2C)c1Nc1ccc(OC(C)=O)cc1", "values": [{"measurement": "logD", "setting": "[7]", "value": 1.67}]}
{"smiles": "CCCCCCCCN(CCCCN(CCCN(CCCCCCCC)C(=O)c1cccc(O)c1O)C(=O)c1cccc(O)c1O)C(=O)c1cccc(O)c1O", "values": [{"measurement": "logD", "setting": "[8]", "value": 0.51}]}
{"smiles": "COC(=O)[C@H](Cc1ccccc1)NC(=O)[C@H](Cc1ccccc1)NC(=O)[C@@H](NC(=O)[C@H](CC(C)C)NC(=O)[C@H](CCCCNC(=O)OCc1ccccc1)NC(=O)OC(C)(C)C)C(C)C", "values": [{"measurement": "logP", "setting": "[9]", "value": 7.62}]}
{"smiles": "CC[C@H](C)[C@H](NC(=O)[C@@H](C[C@H](O)[C@H](CC(C)C)NC(=O)[C@H](Cc1cnc[nH]1)N(C)C(=O)[C@H](Cc1ccccc1)NC(=O)[C@@H]1CCCN1C(=O)OC(C)(C)C)C(C)C)C(=O)NCc1ccccn1", "note": "(Boc-PF[NMeH][X1]I-{NHCH2(2-pyridyl)})", "values": [{"measurement": "logP", "setting": "[10]", "value": 4.2}]}
{"smiles": "CCC(C(=O)OCc1ccc(COC(=O)C(CC)C(COC(=O)c2ccccc2)Cc2cncn2C)cc1)C(COC(=O)c1ccccc1)Cc1cncn1C", "note": "(configuration not stated)", "values": [{"measurement": "logP", "setting": "[11]", "value": 6.37}]}
